From PubChem BioAssay (NCI)
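Exposure lasted 48 hours, with cells grown in 96-well plates and compounds tested at five concentrations. Definition used: TGI = concentration required for complete inhibition of growth.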

Legend:
Assay in all cases: growth of human tumour cells (NCI), 48 h
786-0 renal = test system: 786-0 renal
A498 renal = test system: A498 renal
ACHN renal = test system: ACHN renal
BT-549 breast = test system: BT-549 breast
CAKI-1 renal = test system: CAKI-1 renal
CCRF-CEM leukemia = test system: CCRF-CEM leukemia
COLO 205 colon = test system: COLO 205 colon
DU-145 prostate = test system: DU-145 prostate
EKVX NSCLC = test system: EKVX NSCLC
HCC-2998 colon = test system: HCC-2998 colon
HCT-116 colon = test system: HCT-116 colon
HCT-15 colon = test system: HCT-15 colon
HL-60(TB) leukemia = test system: HL-60(TB) leukemia
HOP-62 NSCLC = test system: HOP-62 NSCLC
HOP-92 NSCLC = test system: HOP-92 NSCLC
HT29 colon = test system: HT29 colon
IGROV1 ovarian = test system: IGROV1 ovarian
K-562 leukemia = test system: K-562 leukemia
KM12 colon = test system: KM12 colon
LOX IMVI melanoma = test system: LOX IMVI melanoma
MALME-3M melanoma = test system: MALME-3M melanoma
MCF7 breast = test system: MCF7 breast
MDA-MB-231 breast = test system: MDA-MB-231 breast
MDA-MB-435 = test system: MDA-MB-435
MDA-N = test system: MDA-N
MOLT-4 leukemia = test system: MOLT-4 leukemia
NCI-H226 lung = test system: NCI-H226 lung
NCI-H23 lung = test system: NCI-H23 lung
NCI-H460 lung = test system: NCI-H460 lung
NCI-H522 lung = test system: NCI-H522 lung
OVCAR-3 ovarian = test system: OVCAR-3 ovarian
OVCAR-4 ovarian = test system: OVCAR-4 ovarian
OVCAR-5 ovarian = test system: OVCAR-5 ovarian
PC-3 prostate = test system: PC-3 prostate
RPMI-8226 leukemia = test system: RPMI-8226 leukemia
RXF 393 renal = test system: RXF 393 renal
SF-268 CNS = test system: SF-268 CNS
SF-295 CNS = test system: SF-295 CNS
SK-MEL-2 melanoma = test system: SK-MEL-2 melanoma
SK-MEL-28 melanoma = test system: SK-MEL-28 melanoma
SK-MEL-5 melanoma = test system: SK-MEL-5 melanoma
SK-OV-3 ovarian = test system: SK-OV-3 ovarian
SN12C renal = test system: SN12C renal
SNB-19 CNS = test system: SNB-19 CNS
SR leukemia = test system: SR leukemia
SW-620 colon = test system: SW-620 colon
TK-10 renal = test system: TK-10 renal
U251 CNS = test system: U251 CNS
UACC-257 melanoma = test system: UACC-257 melanoma
UACC-62 melanoma = test system: UACC-62 melanoma
UO-31 renal = test system: UO-31 renal

Measured: TGI

[N-]=[N+]=CC(=O)OC1CCOCC1
> 100 µM: all assays above
